Reference: patent publication US8008260B2, “Methods of protecting against apoptosis using lipopeptides” (Cleveland Clinic Foundation, priority 2005, dated 2011)
Peptide text beside a SMILES is read from it. * marks the point of attachment. Propyl(2R-PamO,3-PamO) = CCCCCCCCCCCCCCCC(=O)OC[C@H](C*)OC(=O)CCCCCCCCCCCCCCC

How the values were obtained:
NIH Swiss mice = assay: Protection from lethal total body gamma radiation, lipopeptides s.c. 30 minutes prior; type: in vivo; details: for survival post-treatment: <0.1 MTD
Procedure: Lipopeptides are potent activators of NF-κB and, as such, may act as inhibitors of apoptotic death. To determine whether lipopeptides function as radioprotectants, various lipopeptides were initially tested to determine the maximal tolerable dose (MTD). Various lipopeptides were then tested to measure their protective effect in NIH Swiss mice to lethal hematopoietic or nd gastrointestinal syndromes after exposure to 10 Gy or 13-15 Gy of total body gamma radiation, respectively. Lipopeptides (0.3-10 μg/mouse) were administered subcutaneously 30 minutes prior to irradiation.
The results of a representative experiment using R-PAM2C-SKKKK (SEQ ID NO: 8) (hereafter, this compound is called, CBLB601) at <0.1 MTD are shown in FIG. 3. As expected, control mice irradiated with 10 Gy died between 11 and 15 days post-treatment, while all animals that received CBLB601 lived beyond 35 days post-treatment. Similarly, control mice irradiated with 13 Gy died between 6 and 10 days post-treatment, while all but one animal that received CBLB601 lived beyond 35 days post-treatment. The radioprotective ability of CBLB601 was further analyzed by measuring the effect of radiation on spleen size.

ICR mice = assay: NOAEL determination, i.p. injection of increasing doses, two-week observation; type: in vivo
Procedure: The dose of NOAEL (No Obvious Adverse Effects Level) was determined by injecting intraperitoneally (i.p) ICR mice with the increasing doses of CBLB601 (0.3, 1, 3, 10, 30, 60, 100 μg/mouse). Control mice were injected with PBS. […] During the first week they were weighed daily. […] Thus, NOAEL for CBLB601 was determined to be 30 μg/mouse.

Compound: CCCCCCCCCCCCCCCC(=O)OC[C@H](CSC[C@H](N)C(=O)N[C@@H](CO)C(=O)N[C@@H](CCCCN)C(=O)N[C@@H](CCCCN)C(=O)N[C@@H](CCCCN)C(=O)N[C@@H](CCCCN)C(=O)O)OC(=O)CCCCCCCCCCCCCCC [CBLB601, R-PAM2C-SKKKK] (H-C(Propyl(2R-PamO,3-PamO))SKKKK-OH)
- survival post-treatment (NIH Swiss mice; 10 Gy, all animals): > 35 days
- effect of radiation on spleen size (NIH Swiss mice; 13 Gy total body gamma irradiation (FIG. 4)): significantly less reduction in the size of the spleen
- survival post-treatment (NIH Swiss mice; 13 Gy, all but one animal): > 35 days
- protection of the thymus from radiation (NIH Swiss mice; data not shown): protected the thymus from radiation
- differences between treated and control mice (ICR mice; 30 μg dose i.p.): no noticeable differences
- morbidity (ICR mice; 60 μg dose i.p., around 3-4 days after treatment): signs of morbidity, such as slow motion and scruffy fur
- mortality (ICR mice; 100 μg/mouse i.p., 1-2 days post-treatment): Mortality was observed
- body weight versus control mice (ICR mice; 0.3-100 μg/mouse i.p., weighed daily in first week): no differences in weight
- NOAEL (No Obvious Adverse Effects Level) (ICR mice; i.p., ICR mice): 30 μg/mouse
